Converted amounts (≈) assume the structure as drawn.
What was measured:
[1] = biological target: Voltage-dependent T-type calcium channel subunit alpha-1H (Homo sapiens, UniProt O95180); assay: Channel blocking activity at recombinant human CaV 3.2 channel expressed in HEK293 cells assessed as inhibition of Ca2+ flux preincubated for 3 mins followed by CaCl2 addition by fluo-4 dye-based FLIPR assay; format: cell-based
MDR1 [2] = assay: Apparent permeability from basolateral side to apical side in MDCK1 cells expressing MDR1; format: ADME, cell-based, Canis lupus familiaris; settings: dog, MDCK-MDR1
[3] = biological target: Voltage-dependent T-type calcium channel subunit alpha-1I (Homo sapiens, UniProt Q9P0X4); assay: Channel blocking activity at recombinant human CaV 3.3 channel expressed in HEK293 cells assessed as inhibition of Ca2+ flux preincubated for 3 mins followed by CaCl2 addition by fluo-4 dye-based FLIPR assay; format: cell-based
MDR1 [4] = assay: Apparent permeability from apical side to basolateral side in MDCK1 cells expressing MDR1; format: ADME, cell-based, Canis lupus familiaris; settings: dog, MDCK-MDR1
[5] = Dissociation constant, pKa of compound; format: physicochemical
[6] = Intrinsic clearance in human liver microsomes at 1 uM up to 15 mins in presence of NADPH by LC-MS-MS analysis; format: ADME; settings: read-out: CLH
MDR1 [7] = assay: Efflux ratio for apparent permeability in MDCK1 cells expressing MDR1; format: ADME, cell-based, Canis lupus familiaris; settings: dog, MDCK-MDR1
[8] = biological target: Voltage-dependent T-type calcium channel subunit alpha-1G (Homo sapiens, UniProt O43497); assay: Channel blocking activity at recombinant human CaV 3.1 channel expressed in HEK293 cells assessed as inhibition of Ca2+ flux preincubated for 3 mins followed by CaCl2 addition by fluo-4 dye-based FLIPR assay; format: cell-based
Sequence of Voltage-dependent T-type calcium channel subunit alpha-1G (O43497 whole entry): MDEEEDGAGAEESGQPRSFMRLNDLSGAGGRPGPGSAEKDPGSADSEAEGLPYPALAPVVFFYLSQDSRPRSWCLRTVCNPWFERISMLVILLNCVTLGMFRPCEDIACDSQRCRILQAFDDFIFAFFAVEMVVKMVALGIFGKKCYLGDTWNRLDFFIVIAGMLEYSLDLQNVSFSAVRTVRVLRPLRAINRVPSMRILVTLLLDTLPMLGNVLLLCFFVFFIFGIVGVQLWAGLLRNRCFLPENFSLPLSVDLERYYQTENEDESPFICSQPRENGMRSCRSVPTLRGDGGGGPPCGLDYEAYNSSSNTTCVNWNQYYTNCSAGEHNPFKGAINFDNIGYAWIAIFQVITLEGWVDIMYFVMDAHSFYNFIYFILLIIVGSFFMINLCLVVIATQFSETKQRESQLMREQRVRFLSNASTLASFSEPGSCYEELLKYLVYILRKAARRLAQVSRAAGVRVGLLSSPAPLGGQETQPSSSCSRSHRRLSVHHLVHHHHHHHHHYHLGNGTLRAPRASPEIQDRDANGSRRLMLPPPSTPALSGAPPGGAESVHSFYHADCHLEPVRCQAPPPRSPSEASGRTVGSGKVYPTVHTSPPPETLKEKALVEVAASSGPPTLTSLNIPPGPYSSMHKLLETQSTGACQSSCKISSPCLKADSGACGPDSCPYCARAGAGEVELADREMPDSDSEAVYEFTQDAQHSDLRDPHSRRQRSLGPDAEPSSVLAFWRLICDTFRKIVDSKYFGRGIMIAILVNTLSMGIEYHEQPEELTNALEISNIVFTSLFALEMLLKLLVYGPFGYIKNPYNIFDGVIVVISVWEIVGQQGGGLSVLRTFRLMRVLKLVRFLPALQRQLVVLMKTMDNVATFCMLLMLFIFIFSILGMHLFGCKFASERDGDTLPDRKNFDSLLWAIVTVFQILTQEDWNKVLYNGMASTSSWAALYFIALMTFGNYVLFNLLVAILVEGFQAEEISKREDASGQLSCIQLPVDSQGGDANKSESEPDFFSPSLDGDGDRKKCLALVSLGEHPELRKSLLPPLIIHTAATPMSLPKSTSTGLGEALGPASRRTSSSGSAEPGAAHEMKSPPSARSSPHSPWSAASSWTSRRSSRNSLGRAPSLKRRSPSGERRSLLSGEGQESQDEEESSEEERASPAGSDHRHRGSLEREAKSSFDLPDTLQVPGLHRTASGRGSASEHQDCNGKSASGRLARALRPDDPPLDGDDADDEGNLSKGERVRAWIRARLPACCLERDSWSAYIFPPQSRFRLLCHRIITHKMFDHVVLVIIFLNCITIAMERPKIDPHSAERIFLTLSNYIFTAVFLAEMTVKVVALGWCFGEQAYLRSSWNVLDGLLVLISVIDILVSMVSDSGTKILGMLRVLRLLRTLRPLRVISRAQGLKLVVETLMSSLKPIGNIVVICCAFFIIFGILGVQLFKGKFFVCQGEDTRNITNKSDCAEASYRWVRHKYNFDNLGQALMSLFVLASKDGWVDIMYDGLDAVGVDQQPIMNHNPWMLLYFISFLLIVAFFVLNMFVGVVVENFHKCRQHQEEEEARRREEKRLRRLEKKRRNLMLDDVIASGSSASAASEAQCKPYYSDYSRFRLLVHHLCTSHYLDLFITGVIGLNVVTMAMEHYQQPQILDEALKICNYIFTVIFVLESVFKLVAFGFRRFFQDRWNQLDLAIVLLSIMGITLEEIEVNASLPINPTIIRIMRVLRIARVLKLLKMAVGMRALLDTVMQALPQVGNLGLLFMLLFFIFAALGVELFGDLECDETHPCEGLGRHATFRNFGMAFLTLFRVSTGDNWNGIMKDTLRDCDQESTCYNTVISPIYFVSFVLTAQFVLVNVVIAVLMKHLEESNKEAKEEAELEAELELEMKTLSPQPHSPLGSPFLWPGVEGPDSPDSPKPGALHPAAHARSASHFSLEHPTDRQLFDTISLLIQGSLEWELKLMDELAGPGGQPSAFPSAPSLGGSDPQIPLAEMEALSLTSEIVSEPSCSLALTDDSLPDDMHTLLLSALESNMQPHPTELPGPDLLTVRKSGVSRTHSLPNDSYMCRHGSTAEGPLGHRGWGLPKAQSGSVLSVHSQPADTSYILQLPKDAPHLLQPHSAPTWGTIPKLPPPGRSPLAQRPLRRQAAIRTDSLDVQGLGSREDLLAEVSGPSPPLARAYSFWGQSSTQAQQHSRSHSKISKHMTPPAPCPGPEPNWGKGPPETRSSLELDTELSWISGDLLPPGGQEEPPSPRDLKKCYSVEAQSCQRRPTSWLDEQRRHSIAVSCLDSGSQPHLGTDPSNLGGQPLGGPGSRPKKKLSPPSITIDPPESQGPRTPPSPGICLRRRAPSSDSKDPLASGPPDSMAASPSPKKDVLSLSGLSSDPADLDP

[9] = Intrinsic clearance in Wistar rat liver microsomes at 1 uM up to 15 mins in presence of NADPH by LC-MS-MS analysis; format: ADME; settings: read-out: CLH
[10] = Solubility of the compound at pH 7; format: physicochemical; settings: buffer

Sequence of Voltage-dependent T-type calcium channel subunit alpha-1H (O95180 whole entry): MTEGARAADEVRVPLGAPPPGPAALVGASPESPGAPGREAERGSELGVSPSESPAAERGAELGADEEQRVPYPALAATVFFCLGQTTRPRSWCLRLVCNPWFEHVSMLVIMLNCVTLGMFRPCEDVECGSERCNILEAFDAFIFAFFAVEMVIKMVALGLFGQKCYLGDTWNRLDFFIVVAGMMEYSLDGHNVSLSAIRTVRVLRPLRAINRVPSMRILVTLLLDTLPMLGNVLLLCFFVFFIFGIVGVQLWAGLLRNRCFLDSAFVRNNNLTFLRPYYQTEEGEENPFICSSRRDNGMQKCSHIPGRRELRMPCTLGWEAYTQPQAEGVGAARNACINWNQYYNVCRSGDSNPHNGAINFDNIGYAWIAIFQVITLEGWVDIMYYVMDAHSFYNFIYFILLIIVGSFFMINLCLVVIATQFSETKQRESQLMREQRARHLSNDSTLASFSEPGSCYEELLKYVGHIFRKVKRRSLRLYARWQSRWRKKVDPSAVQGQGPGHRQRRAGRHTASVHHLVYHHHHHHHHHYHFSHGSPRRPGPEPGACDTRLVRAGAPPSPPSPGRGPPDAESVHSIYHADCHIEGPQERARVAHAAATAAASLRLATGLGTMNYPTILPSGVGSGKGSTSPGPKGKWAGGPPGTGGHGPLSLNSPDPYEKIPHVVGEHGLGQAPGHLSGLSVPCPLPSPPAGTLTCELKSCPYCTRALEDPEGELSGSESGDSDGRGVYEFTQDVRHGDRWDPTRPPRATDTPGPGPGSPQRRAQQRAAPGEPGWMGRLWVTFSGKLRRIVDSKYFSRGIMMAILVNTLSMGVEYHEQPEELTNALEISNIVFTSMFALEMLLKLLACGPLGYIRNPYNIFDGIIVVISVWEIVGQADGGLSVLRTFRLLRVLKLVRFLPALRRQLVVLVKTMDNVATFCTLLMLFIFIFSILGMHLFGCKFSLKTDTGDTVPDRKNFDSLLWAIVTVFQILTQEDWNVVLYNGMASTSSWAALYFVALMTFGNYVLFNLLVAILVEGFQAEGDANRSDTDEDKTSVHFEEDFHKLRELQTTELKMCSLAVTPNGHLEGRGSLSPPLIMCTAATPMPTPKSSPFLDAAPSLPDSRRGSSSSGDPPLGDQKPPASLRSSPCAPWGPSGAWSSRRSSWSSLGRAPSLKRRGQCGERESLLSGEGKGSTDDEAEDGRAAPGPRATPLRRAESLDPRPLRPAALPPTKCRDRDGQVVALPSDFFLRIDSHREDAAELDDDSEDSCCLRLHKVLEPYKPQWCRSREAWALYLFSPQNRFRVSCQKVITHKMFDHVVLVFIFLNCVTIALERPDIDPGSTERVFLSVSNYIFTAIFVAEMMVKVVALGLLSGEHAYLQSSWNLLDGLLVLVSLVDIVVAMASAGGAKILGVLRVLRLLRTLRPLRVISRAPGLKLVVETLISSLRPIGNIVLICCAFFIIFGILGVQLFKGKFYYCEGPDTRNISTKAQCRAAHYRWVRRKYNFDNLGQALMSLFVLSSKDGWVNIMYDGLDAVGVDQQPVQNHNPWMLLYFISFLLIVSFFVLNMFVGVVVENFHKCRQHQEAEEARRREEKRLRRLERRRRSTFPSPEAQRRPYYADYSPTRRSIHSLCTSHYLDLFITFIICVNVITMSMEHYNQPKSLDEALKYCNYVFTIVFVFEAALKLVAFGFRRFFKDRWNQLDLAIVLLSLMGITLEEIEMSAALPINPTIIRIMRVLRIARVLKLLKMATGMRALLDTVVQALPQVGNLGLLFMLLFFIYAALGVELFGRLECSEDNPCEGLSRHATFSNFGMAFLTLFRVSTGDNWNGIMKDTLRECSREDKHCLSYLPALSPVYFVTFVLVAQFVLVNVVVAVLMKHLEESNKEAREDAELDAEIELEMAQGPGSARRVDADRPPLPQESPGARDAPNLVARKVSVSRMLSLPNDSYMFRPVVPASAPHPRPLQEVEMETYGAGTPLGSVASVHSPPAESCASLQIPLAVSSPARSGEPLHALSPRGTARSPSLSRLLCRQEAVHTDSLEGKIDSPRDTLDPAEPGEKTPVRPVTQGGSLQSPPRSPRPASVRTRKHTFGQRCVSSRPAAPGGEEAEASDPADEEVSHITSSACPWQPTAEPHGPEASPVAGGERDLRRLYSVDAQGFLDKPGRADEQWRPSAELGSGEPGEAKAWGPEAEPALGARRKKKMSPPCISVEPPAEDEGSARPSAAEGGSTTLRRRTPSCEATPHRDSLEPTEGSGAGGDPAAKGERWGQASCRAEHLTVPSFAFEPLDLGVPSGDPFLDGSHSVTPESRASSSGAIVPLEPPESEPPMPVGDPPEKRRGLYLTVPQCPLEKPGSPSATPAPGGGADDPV

Row | Structure (SMILES) | IC50 [1] [nM] | Papp B→A (MDR1 [2]) [×10⁻⁶ cm/s] | IC50 [3] [nM] | Papp A→B (MDR1 [4]) [×10⁻⁶ cm/s] | pKa [5] | microsomal CLint at 1 µM [6] [µL/min/mg] | efflux ratio (MDR1 [7]) | IC50 [8] [nM] | microsomal CLint at 1 µM [9] [µL/min/mg] | solubility [10] [µg/mL]
1 | C[C@@H]1CN(Cc2ccccc2)c2cncc(F)c2[C@H](C)N1C(=O)NCc1ccccc1 (racemic) | 72 | 61 | 9 | 26.3 | 4.2 | 185 | 2.3 | 140 | – | –
2 | C[C@@H]1CN(Cc2ccccc2)c2ncc(Cl)cc2[C@H](C)N1C(=O)NCc1ccccc1 (racemic) | 68 | – | 46 | – | – | 409 | – | 78 | – | –
3 | C[C@@H]1CN(Cc2ccccc2)c2cc(F)ccc2[C@H](C)N1C(=O)Nc1cccnc1 (racemic) | 12 | – | 4 | – | – | > 1250 | – | 6 | – | –
4 | COc1ccc(CNC(=O)N2[C@H](C)CN(Cc3ccc(C(F)(F)F)o3)c3cnccc3[C@@H]2C)cc1 (racemic) | 24 | – | 11 | – | – | 119 | – | 13 | 447 | –
5 | C[C@@H]1CN(Cc2cccc(F)c2F)c2cnccc2[C@H](C)N1C(=O)NCc1ccccc1 (racemic) | 72 | – | 13 | – | – | 212 | – | 38 | – | –
6 | C[C@@H]1CN(Cc2ccccc2)c2ncccc2[C@H](C)N1C(=O)NCc1ccccc1 (racemic) | 31 | – | 8 | – | – | 1060 | – | 15 | – | –
7 | C[C@@H]1CN(Cc2ccccc2)c2cc(C#N)ccc2[C@H](C)N1C(=O)Nc1cccnc1 (racemic) | 860 | – | 308 | – | – | 418 | – | 582 | – | –
8 | C[C@@H]1CN(Cc2ccccc2)c2cc(F)cc(F)c2[C@H](C)N1C(=O)Nc1cccnc1 (racemic) | 22 | – | 8 | – | – | 873 | – | 12 | – | –
9 | COc1ccc2c(c1)N(Cc1ccccc1)C[C@@H](C)N(C(=O)Nc1cccnc1)[C@H]2C (racemic) | 1600 | – | 610 | – | – | 649 | – | 627 | – | –
10 | C[C@@H]1CNc2ccccc2[C@H](C)N1C(=O)NCc1ccccc1 (racemic) | > 10700 | – | > 8600 | – | – | 59 | – | > 10000 | – | –
11 | C[C@@H]1CN(Cc2ccccc2)c2ccccc2[C@H](C)N1C(=O)Cc1cncs1 (racemic) | 55 | – | 6 | – | – | > 1250 | – | 34 | – | 21 to 39 (≈ 53.6 to 99.6 µM)
12 | C[C@@H]1CN(Cc2ccccc2)c2cnccc2[C@H](C)N1C(=O)CCc1ccc(F)cc1 (racemic) | 225 | – | 25 | – | – | 907 | – | 196 | > 1250 | –
13 | COc1ccc(CNC(=O)N2[C@H](C)CN(Cc3ccccc3)c3cnccc3[C@@H]2C)cc1 (racemic) | 48 | – | 12 | – | – | 189 | – | 79 | 1140 | –
14 | C[C@@H]1CN(c2ccccc2)c2ccccc2[C@H](C)N1C(=O)NCc1ccccc1 (racemic) | 209 | – | 225 | – | – | > 1250 | – | 256 | – | –
15 | C[C@@H]1CN(Cc2ccccc2F)c2cnccc2[C@H](C)N1C(=O)NCc1ccccc1 (racemic) | 95 | – | 31 | – | – | 179 | – | 47 | > 1250 | –
16 | C[C@@H]1CN(Cc2ccccc2)c2cc(OCC(F)(F)F)ccc2[C@H](C)N1C(=O)Nc1cccnc1 (racemic) | 790 | – | 3560 | – | – | > 1250 | – | 187 | – | –
17 | C[C@@H]1CN(Cc2ccccc2)c2ccccc2[C@H](C)N1C(=O)N1CCOCC1 (racemic) | 58 | – | 9 | – | – | > 1250 | – | 26 | – | 21 to 39 (≈ 55.3 to 103 µM)
18 | C[C@@H]1CN(CCOC(C)(C)C)c2ccccc2[C@H](C)N1C(=O)Nc1cccnc1 (racemic) | 91 | – | 23 | – | – | 1230 | – | 108 | – | 81 (≈ 204 µM)
19 | [2H]C([2H])(c1ccccc1)N1C[C@@H](C)N(C(=O)NCc2ccccc2)[C@@H](C)c2ccncc21 (racemic) | 230 | – | 15 | – | – | 186 | – | 260 | > 1250 | –
20 | C[C@@H]1CN(Cc2ccccc2)c2cccc(F)c2[C@H](C)N1C(=O)Nc1cccnc1 (racemic) | 52 | – | 10 | – | – | 628 | – | 20 | – | –
21 | C[C@@H]1CN(Cc2ccccc2)c2cnc(Cl)cc2[C@H](C)N1C(=O)NCc1ccccc1 (racemic) | 224 | – | 55 | – | – | > 1250 | – | 220 | – | –

Source: ChEMBL document CHEMBL3864167, “Structure-Activity Relationship, Drug Metabolism and Pharmacokinetics Properties Optimization, and in Vivo Studies of New Brain Penetrant Triple T-Type Calcium Channel Blockers” (J Med Chem, 2016)
